Columns and labels:
[1] = tested on: untransformed fibroblasts (HSF1); test: Clonogenic assay comparing the radioprotective effect of phosphorylated amino acids, 4 Gy; assay type: cell-based, human; conditions: 10 μM for 16 hours, then 4 Gy ionizing irradiation, FIG. 3
Experimental: The cells, which are cultured as described in Example 1 and which are either incubated with the cell-damaging factors as described in Example 2 or remain untreated as controls, are freed from medium, washed and detached from the substrate using 0.05% trypsin and 0.1% EDTA. For the purpose of analyzing colony formation, the detached cells are plated at a constant cell density of 1500 cells per 78 cm^2 dish. […]
In this connection, a colony is a mass of cells which develops, during the 14 days of culture, from a single cell as a result of consecutive cell divisions. […] If many cells die during the treatment with the cell-damaging factors, only a few colonies are then formed after 14 days; if many cells survive, many colonies can then be counted after the 14 days of culture.

[2] = tested on: transformed fibroblasts (HH4dd); test: Clonogenic assay after P-Tyr pretreatment and cisplatin treatment; assay type: cell-based, human; conditions: 10 μM P-Tyr for 16 hours, then 1 μg of cisplatin/ml for one hour, FIG. 6B
Experimental: (§1) The incubation with cisplatin take place at a concentration of 1 μg of cisplatin/ml (cis-diammine platinum(II-dichloride); Sigma, Munich, Germany).
(§2) The cells, which are cultured as described in Example 1 and which are either incubated with the cell-damaging factors as described in Example 2 or remain untreated as controls, are freed from medium, washed and detached from the substrate using 0.05% trypsin and 0.1% EDTA. For the purpose of analyzing colony formation, the detached cells are plated at a constant cell density of 1500 cells per 78 cm^2 dish. The plated cells were then incubated for 14 days in normal medium additionally containing 20% FCS. This period of time enabled colony formation to take place.
(§3) In this connection, a colony is a mass of cells which develops, during the 14 days of culture, from a single cell as a result of consecutive cell divisions. This colony is also termed a clone. […] If many cells die during the treatment with the cell-damaging factors, only a few colonies are then formed after 14 days; if many cells survive, many colonies can then be counted after the 14 days of culture. […]
(§4) After the 14 days of culture, the cells are fixed, stained and counted as described (Dittmann et al., 1995, loc. cit.). When determining clonogenic survival, the colonies containing more than 50 cells are counted per plate. […]

[3] = tested on: normal, untransformed fibroblasts (HSF1); test: as above; assay type: cell-based, human; conditions: 10 μM P-Tyr for 16 hours, then 1 μg of cisplatin/ml for one hour, versus cells not pretreated, FIG. 6A
Experimental: as §1, §2, §3, §4

[4] = tested on: transformed fibroblasts (HH4dd); test: Clonogenic assay after P-Tyr pretreatment and UVB irradiation; assay type: cell-based, human; conditions: 10 μM P-Tyr for 16 hours, then 200 J of UVB, FIG. 5B
Experimental: (§5) The cells are irradiated with UV light (312 nm) at a dose rate of 450 J/m^2 per minute using a UVB lamp (Bioblock Scientific, Illkirch Cedex, France).
as §2, §3, §4

[5] = tested on: normal, untransformed fibroblasts (HSF1); test: as above; assay type: cell-based, human; conditions: 10 μM P-Tyr for 16 hours, then 200 J of UVB, assayed 7 hours later, FIG. 5A
Experimental: as §5, §2, §3, §4

[6] = tested on: transformed fibroblast cell line HH4dd; test: Clonogenic assay after P-Tyr pretreatment alone, no cell-damaging treatment; assay type: cell-based, human; conditions: FIG. 2A
Description: Transformed human fibroblasts, e.g., the cell line HH4dd (is derived from human skin, passages 65 to 70), are also suitable for the investigation. This cell line is derived from the normal cell strain HH4 and is likewise characterized by a p53 mutation (Dittmann et al., “The radioprotective effect of BBI is associated with the activation of DNA-repair relevant genes”, Int. J. Radiat. Biol. 74, pages 225-230, 1998). HH4dd grows in soft agar, is characterized by its aneuploidy and induces tumors in nude mice. […]
as §3, with “divisions.” for “divisions. This colony is also termed a clone.”
as §4
(§6) The result of such a clonogenic assay is expressed as “relative cytoprotection” or in “% number of the clones”, with the number of the colonies formed in the different assays being related to each other. […]

[7] = tested on: normal lung fibroblasts (CCD32); test: Clonogenic assay after P-Tyr pretreatment and ionizing irradiation at 0 to 6 Gy; assay type: cell-based, human; conditions: 10 μM P-Tyr for 16 hours, up to 6 Gy, FIG. 4
Experimental: (§7) For the radioactive irradiation, the cells are irradiated with 4 MV photons using a “Linac” (Mevatron^60/Siemens, Erlangen, Germany) using a dose rate of 2 Gy/min at room temperature, as described (Dittmann et al. “Bowman-Birk Proteinase inhibitor modulates radiosensitivity and radiation-induced differentiation of human fibroblasts in culture”, Radiother. Oncol. 34, pages 137-143, 1995).
as §2, with “The plated cells were then incubated for 14 days in normal medium additionally containing 20% FCS. This period of time enabled colony formation to take place.” left out
as §3, with “divisions.” for “divisions. This colony is also termed a clone.”
as §4

[8] = tested on: normal skin fibroblasts (HSF6); test: as above; assay type: cell-based, human; conditions: 10 μM P-Tyr for 16 hours, up to 6 Gy, FIG. 4
Experimental: as §7
as §2, with “The plated cells were then incubated for 14 days in normal medium additionally containing 20% FCS. This period of time enabled colony formation to take place.” left out
as §3, with “divisions.” for “divisions. This colony is also termed a clone.”
as §4

[9] = tested on: normal skin fibroblasts (HSF6); test: Clonogenic assay after P-Tyr pretreatment alone, no cell-damaging treatment; assay type: cell-based, human; conditions: P-Tyr alone for 16 hours at up to 2000 μM, FIG. 2A
Experimental: Human fibroblasts (cell strains HSF1 and HSF6, which are derived from human skin, passages 9 to 15; CCD32, which is derived from embryonic lung tissue, passages 9 to 11) are particularly well suited for investigating the cytoprotective properties of the phosphotyrosine.
The cells are cultured in Dulbecco's modified Eagle's medium (DMEM) supplemented with 10% fetal calf serum (FCS) (GIBCO/BRL, Eggenstein, Germany, article No. 40G7285K) (=normal medium), under standard conditions. […]
as §3, with “divisions.” for “divisions. This colony is also termed a clone.”
as §4, §6

[10] = tested on: transformed HH4dd fibroblasts; test: Clonogenic assay after P-Tyr pretreatment and ionizing irradiation at 4 Gy, different P-Tyr doses; assay type: cell-based, human; conditions: FIG. 2B
Experimental: as §7
as §2, with “The plated cells were then incubated for 14 days in normal medium additionally containing 20% FCS. This period of time enabled colony formation to take place.” left out
as §3, with “divisions.” for “divisions. This colony is also termed a clone.”
as §4

[11] = tested on: human breast and kidney carcinoma cells; conditions: Mishra and Hamburger 1993; P-Tyr dose-dependent; run at 1.67 mM, some at 16.7 mM; cited from earlier work
[12] = tested on: liver carcinoma cell line and arc-transformed NIH 3T3 cells; conditions: Mishra and Hamburger, Cancer Letters 1996; cited from earlier work
[13] = Inventors' investigations of the concentration range of the cytoprotective effect; assay type: cell-based; conditions: investigations carried out by the inventors
Experimental: In the culture medium according to the invention it is preferred to use phosphotyrosine in a concentration range of from 1 to 100 μM. Thus, investigations carried out by the inventors have shown that the cytoprotective effect of the phosphotyrosine is particularly high in this range.

[14] = tested on: normal skin fibroblasts (HSF6); test: Clonogenic assay after P-Tyr pretreatment and ionizing irradiation at 4 Gy, different P-Tyr doses; assay type: cell-based, human; conditions: FIG. 2B
Experimental: as §7
as §2, with “The plated cells were then incubated for 14 days in normal medium additionally containing 20% FCS. This period of time enabled colony formation to take place.” left out
as §3, with “divisions.” for “divisions. This colony is also termed a clone.”
as §4

[15] = tested on: HTB-43 squamous carcinoma cell line; test: Clonogenic assay after P-Tyr pretreatment and ionizing irradiation at 0 to 6 Gy; assay type: cell-based, human; conditions: 10 μM P-Tyr for 16 hours, FIG. 4
Description: (§8) In addition, it is possible to use the human squamous carcinoma cell lines HTB-35 (ATCC, which is derived from a cervical carcinoma, passage unknown, used in passage 10 after receipt) (Srivastava et al., “The status of the p53 gene in human papilloma virus positive or negative cervical carcinoma cell lines”, Carcinogenesis 13, pages 1273-1275, 1992) and HTB-43 (ATCC, is derived from a hypopharyngeal tumor, passage 124). Both carcinoma cell lines are characterized by a point mutation in the p53 gene (Kim et al., “State of p53, Rb and DCC tumor suppressor genes in human oral cancer cell lines”, Anticancer Research, pages 1405-1413, 1993). […]
as §3, with “divisions.” for “divisions. This colony is also termed a clone.”
as §4

[16] = tested on: HTB-35 squamous carcinoma cell line; test: as above; assay type: cell-based, human; conditions: 10 μM P-Tyr for 16 hours, FIG. 4
Description: as §8
as §3, with “divisions.” for “divisions. This colony is also termed a clone.”
as §4

SMILES	radioprotection (clonogenic assay) [1]	clonogenic survival after cisplatin treatment [2]	increase in clonogenic survival after cisplatin incubation [3]	effect on clonogenic survival after UVB irradiation [4]	increase in clonogenic survival after UVB irradiation [5]	effect on clonogenic survival [6]	clonogenic survival after ionizing irradiation [7]	clonogenic survival after ionizing irradiation [8]	effect on clonogenic survival [9]	clonogenic survival after ionizing irradiation ([10]; transformed HH4dd fibroblasts, same treatment)	toxicity of the radiation ([10]; transformed fibroblasts, 2000 pM P-Tyr)	growth of human breast and kidney carcinoma cells [11]	cell growth of liver carcinoma cell line and arc-transformed NIH 3T3 cells [12]	concentration range in which the cytoprotective effect is particularly high [13]	P-Tyr concentration at which maximum survival was achieved ([14]; ionizing irradiation at 4 Gy)	clonogenic survival after ionizing irradiation ([14]; phosphotyrosine plus ionizing irradiation at 4 Gy)	clonogenic survival after ionizing irradiation [15]	clonogenic survival after ionizing irradiation [16]
C[C@@H](OP(=O)(O)O)[C@H](N)C(=O)O [P-Thr, phosphothreonine, reference compound]	did not result in any radioprotection																	
N[C@@H](Cc1ccc(OP(=O)(O)O)cc1)C(=O)O [P-Tyr, O-phospho-L-tyrosine (L-3-[4-hydroxy-phenyl]alanine-4′-phosphate)]	significant radioprotection	did not lead to any increase in clonogenic survival	38.7%	no effect on the clonogenic survival	37%	no effect was seen on clonogenic survival	significant increase in clonogenic survival	significant increase in clonogenic survival	does not have any effect on the clonogenic survival	no increase in clonogenic survival was observed	significant increase in the toxicity of the radiation	inhibits the growth	inhibit cell growth	1 to 100 µM	10 µM	clear increase in clonogenic survival	significant reduction in clonogenic survival	significant reduction in clonogenic survival

Source: patent publication US8143223B2, “Cytoprotection by means of phosphotyrosine” (Eberhard-Karls-Universitaet Tuebingen Universitaetsklinikum, priority 2001, dated 2012)
